The values that follow come from patent US20180022780A1, “STABILIZATION ADRENOMEDULLIN DERIVATIVES AND USE THEREOF” (priority 2014, published 2018).

Structures are written as SMILES. Bridge positions count the residues as written; N and C are the ends. Square brackets hold non-standard residues; d marks the D form. Peptide text beside a SMILES is read from it. * marks the point of attachment. Palmitoyl = CCCCCCCCCCCCCCCC(=O)*; NMeI = CC[C@H](C)[C@H](NC)C(=O)O; Orn = NCCC[C@H](N)C(=O)O

In assay [1] the target is T1, human adrenomedullin-receptor (Homo sapiens, UniProt O60895+Q16602).
T1 construct: expressed in transfected cells; host or cells: CHO (Chinese hamster ovary) recombinant reporter cell line with aequorin
T1 sequence (Q16602 23-461): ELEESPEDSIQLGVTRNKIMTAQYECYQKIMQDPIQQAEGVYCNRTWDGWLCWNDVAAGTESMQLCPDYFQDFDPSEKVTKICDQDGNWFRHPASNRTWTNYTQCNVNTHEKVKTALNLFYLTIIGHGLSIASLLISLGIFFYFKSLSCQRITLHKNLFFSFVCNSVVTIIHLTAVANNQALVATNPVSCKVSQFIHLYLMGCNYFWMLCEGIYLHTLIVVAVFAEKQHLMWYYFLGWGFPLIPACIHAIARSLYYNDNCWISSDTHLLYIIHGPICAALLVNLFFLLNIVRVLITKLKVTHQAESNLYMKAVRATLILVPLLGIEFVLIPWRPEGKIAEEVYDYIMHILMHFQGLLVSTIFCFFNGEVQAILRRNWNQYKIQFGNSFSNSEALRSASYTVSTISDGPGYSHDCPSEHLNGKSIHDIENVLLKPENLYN
T1 sequence (O60895 43-175): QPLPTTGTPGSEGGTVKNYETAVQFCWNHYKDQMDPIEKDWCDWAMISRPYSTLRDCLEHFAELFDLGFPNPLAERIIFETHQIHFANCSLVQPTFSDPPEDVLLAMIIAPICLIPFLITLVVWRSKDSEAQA
Briefly: Tests on a recombinant adrenomedullin-receptor reporter cell (CHO, aequorin luminescence). The conditions noted are these: Table 1, CHO cell line carrying the human adrenomedullin-receptor. The class given is cell-based. As to the method:
Activation of the receptor by ligands was measured by aequorin luminescence. Construction of the cell line and measurement procedure has been described in detail [Wunder F., Rebmann A., Geerts A, and Kalthof B., Mol Pharmacol, 73, 1235-1243 (2008)]. In brief: Cells were seeded on opaque 384-well microtiter plates at a density of 4000 cells/well and were grown for 24 h. After removal of culture medium, cells were loaded for 3 h with 0.6 μg/ml coelenterazine in Ca^2+-free Tyrode solution (130 mM sodium chloride, 5 mM potassium chloride, 20 mM HEPES (4-(2-hydroxyethyl)-1-piperazineethanesulfonic acid), 1 mM magnesium chloride, and 4.8 mM sodium hydrogen carbonate, pH 7.4) supplemented with 0.2 mM 3-Isobutyl-1-methylxanthine (IBMX) in a cell culture incubator. Examples were added for 6 min in calcium^2+-free Tyrode solution containing 0.1% bovine serum albumin. Immediately before adding calcium^2+ to a final concentration of 3 mM measurement of the aequorin luminescence was started by use of a suitable luminometer. Luminescence was measured for 60 s. In a typical experiment compounds were tested in a concentration range of 1×10^−13 to 3×10^−6 M.

Assay [2] has as its target T2, CLR fused to EYFP and RAMP2 fused to ECFP (Homo sapiens, UniProt O60895+Q16602).
T2 construct: EYFP; ECFP; expressed in transfected cells; host or cells: HEK-293 cells, transient co-transfection
Briefly: cAMP assay (CRE luciferase reporter, HEK-293 cells transiently co-transfected with CLR and RAMP2). Format: cell-based. Particulars: Table 2, cAMP assay; HEK-293, CLR/RAMP2, CRE luciferase, 3 h stimulation, normalized to [G^14]ADM(14-52). A digest of the protocol: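 HEK-293 cells transiently co-transfected with CLR-EYFP, RAMP2-ECFP and a CRE-luc2P luciferase reporter were stimulated with ligands (eight concentrations, triplicate) for 3 h at 37 °C. Luminescence was corrected to 5 µM forskolin, normalized to [G^14]ADM(14-52) standard, and fitted by non-linear regression to dose-response curves.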

T2 sequence (Q16602 23-461): as the sequence (Q16602 23-461) above
T2 sequence (O60895 43-175): as the sequence (O60895 43-175) above

`CCCCCCCCCCCCCCCC(=O)NCCCC[C@H](N)C(=O)NCC(=O)N[C@H]1CCCCNC(=O)CC[C@@H](C(=O)N[C@H](C(=O)N[C@H](C(=O)N[C@@H](CCC(N)=O)C(=O)N[C@@H](CCCCN)C(=O)N[C@@H](CC(C)C)C(=O)N[C@@H](C)C(=O)N[C@@H](Cc2c[nH]cn2)C(=O)N[C@@H](CCC(N)=O)C(=O)N[C@H](C(=O)N[C@@H](Cc2ccc(O)cc2)C(=O)N[C@@H](CCC(N)=O)C(=O)N[C@@H](Cc2ccccc2)C(=O)N[C@H](C(=O)N[C@@H](CC(=O)O)C(=O)N[C@@H](CCCCN)C(=O)N[C@@H](CC(=O)O)C(=O)N[C@@H](CCCCN)C(=O)N[C@@H](CC(=O)O)C(=O)N[C@@H](CC(N)=O)C(=O)N[C@H](C(=O)N[C@@H](C)C(=O)N2CCC[C@H]2C(=O)N[C@@H](CCCNC(=N)N)C(=O)N[C@@H](CO)C(=O)N[C@@H](CCCCN)C(=O)N[C@H](C(=O)N[C@@H](CO)C(=O)N2CCC[C@H]2C(=O)N[C@@H](CCC(N)=O)C(=O)NCC(=O)N[C@@H](Cc2ccc(O)cc2)C(N)=O)[C@@H](C)CC)C(C)C)[C@@H](C)O)[C@@H](C)CC)C(C)C)[C@@H](C)O)NC(=O)[C@H]([C@@H](C)O)NC(=O)CNC(=O)[C@H](Cc2ccccc2)NC(=O)[C@H](CCCNC(=N)N)NC1=O` [Example 13, ((2S,5S,11S,14S,23S)-23-(2-((S)-2-amino-6-palmitamidohexanamido)acetamido)-5-benzyl-2-(3-guanidinopropyl)-11-((R)-1-hydroxyethyl)-3,6,9,12,17,24-hexaoxo-1,4,7,10,13,18-hexaazacyclotetracosane-14-carbonyl)-L-threonyl-ADM(22-52)] (H-K(Palmitoyl)GKRFGTETVQKLAHQIYQFTDKDKDNVAPRSKISPQGY-NH2; lactam 3-8): the half-maximal effective concentration (EC50) (usually the midpoint of the concentration-response curve) in assay [1] was more than 1000 nM; in assay [2], 156 nM.

Turning to `CCCCCCCCCCCCCCCC(=O)NCCCC[C@H](N)C(=O)NCC(=O)N[C@H]1CCC(=O)NCCCC[C@@H](C(=O)N[C@H](C(=O)N[C@H](C(=O)N[C@@H](CCC(N)=O)C(=O)N[C@@H](CCCCN)C(=O)N[C@@H](CC(C)C)C(=O)N[C@@H](C)C(=O)N[C@@H](Cc2c[nH]cn2)C(=O)N[C@@H](CCC(N)=O)C(=O)N[C@H](C(=O)N[C@@H](Cc2ccc(O)cc2)C(=O)N[C@@H](CCC(N)=O)C(=O)N[C@@H](Cc2ccccc2)C(=O)N[C@H](C(=O)N[C@@H](CC(=O)O)C(=O)N[C@@H](CCCCN)C(=O)N[C@@H](CC(=O)O)C(=O)N[C@@H](CCCCN)C(=O)N[C@@H](CC(=O)O)C(=O)N[C@@H](CC(N)=O)C(=O)N[C@H](C(=O)N[C@@H](C)C(=O)N2CCC[C@H]2C(=O)N[C@@H](CCCNC(=N)N)C(=O)N[C@@H](CO)C(=O)N[C@@H](CCCCN)C(=O)N(C)[C@H](C(=O)N[C@@H](CO)C(=O)N2CCC[C@H]2C(=O)N[C@@H](CCC(N)=O)C(=O)NCC(=O)N[C@@H](Cc2ccc(O)cc2)C(N)=O)[C@@H](C)CC)C(C)C)[C@@H](C)O)[C@@H](C)CC)C(C)C)[C@@H](C)O)NC(=O)[C@H]([C@@H](C)O)NC(=O)CNC(=O)[C@H](Cc2ccccc2)NC(=O)[C@H](CCCNC(=N)N)NC1=O` [Example 14, ((2S,5S,11S,14S,23S)-23-(2-((S)-2-amino-6-palmitamidohexanamido)acetamido)-5-benzyl-2-(3-guanidinopropyl)-11-((R)-1-hydroxyethyl)-3,6,9,12,20,24-hexaoxo-1,4,7,10,13,19-hexaazacyclotetracosane-14-carbonyl)-L-threonyl-[N-Me-I^47]ADM(22-52)] (H-K(Palmitoyl)GERFGTKTVQKLAHQIYQFTDKDKDNVAPRSK[NMeI]SPQGY-NH2; lactam 3-8), the concentration for a half-maximal effect (EC50) in assay [1] was 32 nM; in assay [2], 150 nM.

For `CC[C@H](C)[C@H](NC(=O)[C@H](CCC(N)=O)NC(=O)[C@H](Cc1c[nH]cn1)NC(=O)[C@H](C)NC(=O)[C@H](CC(C)C)NC(=O)[C@H](CCCCN)NC(=O)[C@H](CCC(N)=O)NC(=O)[C@@H](NC(=O)[C@@H](NC(=O)[C@@H]1CCCC[C@H](NC(=O)CNC(=O)CN)C(=O)N[C@@H](CCCNC(=N)N)C(=O)N[C@@H](Cc2ccccc2)C(=O)NCC(=O)N[C@@H]([C@@H](C)O)C(=O)N1)[C@@H](C)O)C(C)C)C(=O)N[C@@H](Cc1ccc(O)cc1)C(=O)N[C@@H](CCC(N)=O)C(=O)N[C@@H](Cc1ccccc1)C(=O)N[C@H](C(=O)N[C@@H](CC(=O)O)C(=O)N[C@@H](CCCCN)C(=O)N[C@@H](CC(=O)O)C(=O)N[C@@H](CCCCN)C(=O)N[C@@H](CC(=O)O)C(=O)N[C@@H](CC(N)=O)C(=O)N[C@H](C(=O)N[C@@H](C)C(=O)N1CCC[C@H]1C(=O)N[C@@H](CCCNC(=N)N)C(=O)N[C@@H](CO)C(=O)N[C@@H](CCCCN)C(=O)N[C@H](C(=O)N[C@@H](CO)C(=O)N1CCC[C@H]1C(=O)N[C@@H](CCC(N)=O)C(=O)NCC(=O)N[C@@H](Cc1ccc(O)cc1)C(N)=O)[C@@H](C)CC)C(C)C)[C@@H](C)O` [Example 17, ((2S,5S,11S,14S,19S)-19-(2-(2-aminoacetamido)acetamido)-5-benzyl-2-(3-guanidinopropyl)-11-((R)-1-hydroxyethyl)-3,6,9,12,20-pentaoxo-1,4,7,10,13-pentaazacycloicosane-14-carbonyl)-L threonyl-ADM(22-52)], the concentration giving a half-maximal response (EC50) in assay [1] and in assay [2] was more than 1000 nM throughout.

In the case of `CC[C@H](C)[C@H](NC(=O)[C@H](CCC(N)=O)NC(=O)[C@H](Cc1c[nH]cn1)NC(=O)[C@H](C)NC(=O)[C@H](CC(C)C)NC(=O)[C@H](CCCCN)NC(=O)[C@H](CCC(N)=O)NC(=O)[C@@H](NC(=O)[C@@H](NC(=O)[C@@H]1CCCNC(=O)CC[C@H](NC(=O)CNC(=O)CN)C(=O)N[C@@H](CCCNC(=N)N)C(=O)N[C@@H](Cc2ccccc2)C(=O)NCC(=O)N[C@@H]([C@@H](C)O)C(=O)N1)[C@@H](C)O)C(C)C)C(=O)N[C@@H](Cc1ccc(O)cc1)C(=O)N[C@@H](CCC(N)=O)C(=O)N[C@@H](Cc1ccccc1)C(=O)N[C@H](C(=O)N[C@@H](CC(=O)O)C(=O)N[C@@H](CCCCN)C(=O)N[C@@H](CC(=O)O)C(=O)N[C@@H](CCCCN)C(=O)N[C@@H](CC(=O)O)C(=O)N[C@@H](CC(N)=O)C(=O)N[C@H](C(=O)N[C@@H](C)C(=O)N1CCC[C@H]1C(=O)N[C@@H](CCCNC(=N)N)C(=O)N[C@@H](CO)C(=O)N[C@@H](CCCCN)C(=O)N[C@H](C(=O)N[C@@H](CO)C(=O)N1CCC[C@H]1C(=O)N[C@@H](CCC(N)=O)C(=O)NCC(=O)N[C@@H](Cc1ccc(O)cc1)C(N)=O)[C@@H](C)CC)C(C)C)[C@@H](C)O` [Example 19, ((2S,5S,11S,14S,22S)-22-(2-(2-aminoacetamido)acetamido)-5-benzyl-2-(3-guanidinopropyl)-11-((R)-1-hydroxyethyl)-3,6,9,12,19,23-hexaoxo-1,4,7,10,13,18-hexaazacyclotricosane-14-carbonyl)-L-threonyl-ADM(22-52)] (H-GGERFGT[Orn]TVQKLAHQIYQFTDKDKDNVAPRSKISPQGY-NH2; lactam 3-8), the concentration for a half-maximal effect (EC50) in assay [1] is more than 1000 nM; in assay [2], 21 nM.

`CC[C@H](C)[C@H](NC(=O)[C@H](CCC(N)=O)NC(=O)[C@H](Cc1c[nH]cn1)NC(=O)[C@H](C)NC(=O)[C@H](CC(C)C)NC(=O)[C@H](CCCCN)NC(=O)[C@H](CCC(N)=O)NC(=O)[C@@H](NC(=O)[C@@H](NC(=O)[C@@H]1CC(=O)NCCCC[C@H](NC(=O)CNC(=O)CN)C(=O)N[C@@H](CCCNC(=N)N)C(=O)N[C@@H](Cc2ccccc2)C(=O)NCC(=O)N[C@@H]([C@@H](C)O)C(=O)N1)[C@@H](C)O)C(C)C)C(=O)N[C@@H](Cc1ccc(O)cc1)C(=O)N[C@@H](CCC(N)=O)C(=O)N[C@@H](Cc1ccccc1)C(=O)N[C@H](C(=O)N[C@@H](CC(=O)O)C(=O)N[C@@H](CCCCN)C(=O)N[C@@H](CC(=O)O)C(=O)N[C@@H](CCCCN)C(=O)N[C@@H](CC(=O)O)C(=O)N[C@@H](CC(N)=O)C(=O)N[C@H](C(=O)N[C@@H](C)C(=O)N1CCC[C@H]1C(=O)N[C@@H](CCCNC(=N)N)C(=O)N[C@@H](CO)C(=O)N[C@@H](CCCCN)C(=O)N[C@H](C(=O)N[C@@H](CO)C(=O)N1CCC[C@H]1C(=O)N[C@@H](CCC(N)=O)C(=O)NCC(=O)N[C@@H](Cc1ccc(O)cc1)C(N)=O)[C@@H](C)CC)C(C)C)[C@@H](C)O` [Example 21, ((2S,5S,11S,14S,22S)-22-(2-(2-aminoacetamido)acetamido)-5-benzyl-2-(3-guanidinopropyl)-11-((R)-1-hydroxyethyl)-3,6,9,12,16,23-hexaoxo-1,4,7,10,13,17-hexaazacyclotricosane-14-carbonyl)-L-threonyl-ADM(22-52)] (H-GGKRFGTDTVQKLAHQIYQFTDKDKDNVAPRSKISPQGY-NH2; lactam 3-8): the concentration giving a half-maximal response (EC50) in assay [1] and in assay [2] was more than 1000 nM in each case.
